Target: T1, human TLR8 (Homo sapiens, UniProt Q9NR97)
T1 construct: host or cells: HEK293 (HEK-Blue hTLR8)
T1 sequence (Q9NR97 27-1041): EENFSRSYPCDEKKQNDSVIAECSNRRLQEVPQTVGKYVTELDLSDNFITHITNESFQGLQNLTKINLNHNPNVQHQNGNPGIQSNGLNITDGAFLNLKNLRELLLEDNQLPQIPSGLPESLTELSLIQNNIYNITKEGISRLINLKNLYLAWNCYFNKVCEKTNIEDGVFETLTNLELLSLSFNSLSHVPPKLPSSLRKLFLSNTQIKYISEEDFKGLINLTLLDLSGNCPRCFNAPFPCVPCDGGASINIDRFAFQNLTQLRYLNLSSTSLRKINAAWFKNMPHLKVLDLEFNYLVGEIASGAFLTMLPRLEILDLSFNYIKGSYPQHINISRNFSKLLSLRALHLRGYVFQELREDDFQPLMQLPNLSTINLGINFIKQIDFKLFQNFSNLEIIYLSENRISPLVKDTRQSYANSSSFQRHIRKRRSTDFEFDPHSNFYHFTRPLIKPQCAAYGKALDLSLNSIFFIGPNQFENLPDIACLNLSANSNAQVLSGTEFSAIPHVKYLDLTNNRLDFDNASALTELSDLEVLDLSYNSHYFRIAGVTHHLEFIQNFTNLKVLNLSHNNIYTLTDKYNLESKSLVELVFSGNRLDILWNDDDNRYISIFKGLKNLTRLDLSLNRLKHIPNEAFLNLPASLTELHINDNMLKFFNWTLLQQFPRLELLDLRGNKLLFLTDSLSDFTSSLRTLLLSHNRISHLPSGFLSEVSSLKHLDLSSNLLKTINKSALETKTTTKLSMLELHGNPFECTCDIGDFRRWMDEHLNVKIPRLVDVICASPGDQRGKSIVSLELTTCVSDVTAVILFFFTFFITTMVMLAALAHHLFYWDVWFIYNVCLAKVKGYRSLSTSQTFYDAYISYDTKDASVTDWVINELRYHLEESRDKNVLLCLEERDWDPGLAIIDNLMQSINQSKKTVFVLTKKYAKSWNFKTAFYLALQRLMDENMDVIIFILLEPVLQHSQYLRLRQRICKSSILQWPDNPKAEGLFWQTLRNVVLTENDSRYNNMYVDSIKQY
Assay: HEK293-Blue-hTLR-8 cells assay
Type: cell-based
Settings: HEK293-Blue-hTLR8 cells, R848 stimulation, 20 hrs, SEAP reporter; read-out: HEK/hTLR8 IC50
Source text: A stable HEK293-Blue-hTLR-8 cell line was purchased from InvivoGen (Cat. #: hkb-htlr8, San Diego, California, USA). These cells were originally designed for studying the stimulation of human TLR8 by monitoring the activation of NF-κB. A SEAP (secreted embryonic alkaline phosphatase) reporter gene was placed under the control of the IFN-β minimal promoter fused to five NF-κB and AP-1-binding sites. The SEAP was induced by activating NF-κB and AP-1 via stimulating HEK-Blue hTLR8 cells with TLR8 ligands. Therefore the reporter expression was declined by TLR8 antagonist under the stimulation of a ligand, such as R848, for incubation of 20 hrs. The cell culture supernatant SEAP reporter activity was determined using QUANTI-Blue™ kit (Cat. #: rep-qb1, Invivogen, San Diego, Ca, USA) at a wavelength of 640 nm, a detection medium that turns purple or blue in the presence of alkaline phosphatase.
HEK293-Blue-hTLR8 cells were incubated at a density of 250,000˜450,000 cells/mL in a volume of 170 μL in a 96-well plate in Dulbecco's Modified Eagle's medium (DMEM) containing 4.5 g/L glucose, 50 U/mL penicillin, […], […], 2 mM L-glutamine, 10% (v/v) heat-inactivated fetal bovine serum with addition of 20 μL test compound in a serial dilution in the presence of final DMSO at 1% and 10 μL of 60 uM R848 in above DMEM, perform incubation under 37° C. in a CO2 incubator for 20 hrs. Then 20 μL of the supernatant from each well was incubated with 180 μL Quanti-blue substrate solution at 37° C. for 2 hrs and the absorbance was read at 620˜655 nm using a spectrophotometer. The signaling pathway that TLR8 activation leads to downstream NF-κB activation has been widely accepted, and therefore similar reporter assay was modified for evaluating TLR8 antagonist.

Row | IC50 | SMILES
1 | 49 nM | [2H]c1ccc2c(N3C[C@@H]4C[C@H](Nc5ccc(C[C@@H]6CNCCO6)cc5)CCN4[C@H](C)C3)ccc(C#N)c2n1 [Example 22, 5-[(4R,8R,9aS)-4-methyl-8-[4-[[(2R)-morpholin-2-yl]methyl]anilino]-1,3,4,6,7,8,9,9a-octahydropyrido[1,2-a]pyrazin-2-yl]-2-deuterio-quinoline-8-carbonitrile]
2 | 79 nM | C[C@@H]1CN(c2ccc(C#N)c3ncccc23)C[C@@H]2C[C@H](c3ccc(N4CCOC[C@@H](N)C4)nc3)CCN21 [Example 23, 5-[(4R,8R,9aS)-8[6-[(6S)-6-amino-1,4-oxazepan-4-yl]-3-pyridyl]-4-methyl-1,3,4,6,7,8,9,9a-octahydropyrido[1,2-a]pyrazin-2-yl]quinoline-8-carbonitrile]
3 | 14 nM | C[C@@H]1CN(c2ccc(C#N)c3ncccc23)C[C@@H]2C[C@@H](c3ccc(C4CNCCO4)cc3)CCN21 (stereo partly drawn) [Example 24, 5-[(4R,8S,9aS)-4-methyl-8-(4-morpholin-2-ylphenyl)-1,3,4,6,7,8,9,9a-octahydropyrido[1,2-a]pyrazin-2-yl]quinoline-8-carbonitrile]
4 | 27 nM | C[C@@H]1CN(c2ccc(C#N)c3ncccc23)C[C@@H]2C[C@@H](c3ccc(CC4CNCCO4)cc3)CCN21 (stereo partly drawn) [Example 26, 5-[(4R,8S,9aS)-4-methyl-8-[4-(morpholin-2-ylmethyl)phenyl]-1,3,4,6,7,8,9,9a-octahydropyrido[1,2-a]pyrazin-2-yl]quinoline-8-carbonitrile]
5 | 18 nM | C[C@@H]1CN(c2ccc(C#N)c3ncccc23)C[C@@H]2C[C@H](c3ccc([C@@H]4CNCCO4)cc3)CCN21 [Example 27, 5-[(4R,8R,9aS)-4-methyl-8-[4-[(2R)-morpholin-2-yl]phenyl]-1,3,4,6,7,8,9,9a-octahydropyrido[1,2-a]pyrazin-2-yl]quinoline-8-carbonitrile]
6 | 7 nM | CO[C@H]1CN(c2ccc(O[C@H]3CCN4[C@@H](C3)CN(c3ccc(C#N)c5ncccc35)C[C@H]4C)cn2)C[C@H]1N [Example 28, 5-[(4R,8S,9aS)-8-[[6-[(3R,4S)-3-amino-4-methoxy-pyrrolidin-1-yl]-3-pyridyl]oxy]-4-methyl-1,3,4,6,7,8,9,9a-octahydropyrido[1,2-a]pyrazin-2-yl]quinoline-8-carbonitrile]
7 | 5 nM | C[C@@H]1CN(c2ccc(C#N)c3ncccc23)C[C@@H]2C[C@@H](Oc3cncc(N4CCNCC4)c3)CCN21 [Example 29, 5-[(4R,8S,9aS)-4-methyl-8-[(5-piperazin-1-yl-3-pyridyl)oxy]-1,3,4,6,7,8,9,9a-octahydropyrido[1,2-a]pyrazin-2-yl]quinoline-8-carbonitrile]
8 | 69 nM | CO[C@@H]1CN(c2ccc(C3CN([C@@H]4CCN5[C@@H](C4)CN(c4ccc(C#N)c6ncccc46)C[C@H]5C)C3)cc2)C[C@H]1N [Example 30, 5-[(4R,8R,9aS)-8-[3-[4-[(3R,4R)-3-amino-4-methoxy-pyrrolidin-1-yl]phenyl]azetidin-1-yl]-4-methyl-1,3,4,6,7,8,9,9a-octahydropyrido[1,2-a]pyrazin-2-yl]quinoline-8-carbonitrile]
9 | 29 nM | CO[C@H]1CN(c2ccc(C3CN([C@@H]4CCN5[C@@H](C4)CN(c4ccc(C#N)c6ncccc46)C[C@H]5C)C3)cc2)C[C@H]1N [Example 32, 5-[(4R,8R,9aS)-8-[3-[4-[(3R,4S)-3-amino-4-methoxy-pyrrolidin-1-yl]phenyl]azetidin-1-yl]-4-methyl-1,3,4,6,7,8,9,9a-octahydropyrido[1,2-a]pyrazin-2-yl]quinoline-8-carbonitrile]
10 | 40 nM | [2H]c1ccc2c(N3C[C@@H]4C[C@H](Nc5ccc(C[C@H]6CNCCO6)cc5)CCN4[C@H](C)C3)ccc(C#N)c2n1 [Example 34, 5-[(4R,8R,9aS)-4-methyl-8-[4-[[(2S)-morpholin-2-yl]methyl]anilino]-1,3,4,6,7,8,9,9a-octahydropyrido[1,2-a]pyrazin-2-yl]-2-deuterio-quinoline-8-carbonitrile]
11 | 18 nM | [2H]c1ccc2c(N3C[C@@H]4C[C@@H](N5CC(c6ccc(N7C[C@@H](N)[C@H](OC)C7)cc6)C5)CCN4[C@H](C)C3)ccc(C#N)c2n1 [Example 36]
12 | 116 nM | [2H]c1ccc2c(N3C[C@@H]4C[C@H](N5CCN(c6ccncc6)CC5)CCN4[C@H](C)C3)ccc(C#N)c2n1 [Example 37, 5-[(4R,8R,9aS)-4-methyl-8-[4-(4-pyridyl)piperazin-1-yl]-1,3,4,6,7,8,9,9a-octahydropyrido[1,2-a]pyrazin-2-yl]-2-deuterio-quinoline-8-carbonitrile]

Source: patent US12421229B2, “Hydropyrido[1,2-α]pyrazine compounds for the treatment of autoimmune disease” (Hoffmann-La Roche Inc., priority 2019, dated 2025)
